The record followed here is US20130158112A1, “COMPOSITIONS AND METHODS FOR INHIBITING BETA AMYLOID SECRETION” (priority 2011, published 2013).

In one data set the test system is Aβ secretion. Kind of data set: Secreted total Aβ ELISA in conditioned media of H4βAPP695 wt cells. It counts as cell-based, human. The conditions noted are these: for inhibition at 10 µM / inhibition at 30 µM: Homo sapiens, 24 h, H4βAPP695 wt cells; for inhibition at 10 µM: read-out: Total Aβ (% decrease) 10 μM Mean; for inhibition at 30 µM: read-out: Total Aβ (% decrease) 30 μM Mean; for Aβ secretion inhibiting activity (structure activity summary): in words. The procedure:
(§1) H4βAPP695 wt cells, a human […] cell line stably transfected with a wtβAPP695 expression vector construct under the control of a CMV promoter (kindly provided by Dr. Chris Eckman from Mayo Clinic, Florida) were cultured as previously described. Twenty-four hours before drug treatment, the media was replaced with serum-free media. Cells were then incubated with drugs (dissolved in DMSO) or vehicle for 24 h for collection of conditioned media and cell lysates. For the PKC inhibitors experiment, three inhibitors were treated 30 min prior to drug challenge. Primary cortical neurons were prepared from embryonic day 18 APP and presenilin 1 (APPswe, PSEN1dE9) transgenic mice on the C57BL/6 genetic background (Jackson Laboratories, strain no. 5864) as previously described. THLE-3 human hepatoma cells (from ATCC) were plated in 24-well plates that were precoated with 10 μg/mL bovine serum albumin, 10 μg/mL fibronectin, and 30 μg/mL bovine type I collagen. The cells were grown in BEGM media (Clonetics) until confluent and treated with drugs at 20 μM for 24 h. This conditioned media was harvested, diluted 1:1 in serum-free medium, and incubated with H4βAPP695 wt cells for 24 h prior to analysis of secreted Aβ, which was compared to the effect of 10 μM drug treatments without prior incubation with the THLE-3 cells. Caco-2 cells (ATCC) were plated in 12-well plates with Transwell inserts (Costar) at 70000 cells per well and grown for 21 days. The media volume of the apical and basal chambers was 0.5 and 1.5 mL, respectively. Transepithelial resistance was measured in each well and found to be >160 Ω/cm^2. Drugs at 40 μM and 20 μg/mL of lucifer yellow were added in serum-free medium to the apical chamber. Four hours later, the basal chamber media was harvested and used to measure lucifer yellow fluorescence to confirm monolayer integrity as well as for treatment of H4βAPP695 wt cells for 24 h prior to analysis of secreted Aβ, which was compared to the effect of direct addition of 10 μM of the corresponding drug.

The test system of a further data set is H4βAPP695 wt cells. Briefly: Cytotoxicity by total cell protein content (BCA) of H4βAPP695 wt cells. As to conditions: cytotoxicity.
Data set [1] deals with THLE-3 human hepatoma cells. Briefly: Drug activity persistence after incubation with THLE-3 hepatoma cells. It counts as in vitro ADME. The conditions noted are these: for inhibition at 10 µM: Homo sapiens, THLE3, 24 h. The procedure: as §1
To screen for resistance to metabolism, 1 and eight noncytotoxic analogues with >50% Aβ reducing activity (compounds 27, 29, 48, 52, 53, 65, 73, and 76) were incubated at 20 μM for 24 h with or without THLE-3 human hepatoma cells.

Like-named read-outs stand apart in the source and are kept apart here. A value given as a limit tells only on which side of the number the result lay.

The compound `COc1cc(CSCCNC(=O)c2c(Cl)cccc2Cl)cc(OC)c1` [Compound 60, 2,6-Dichloro-N-[2-(3,5-dimethoxy-benzylsulfanyl)-ethyl]-benzamide] gave a melting point of 46 to 47 °C. In the data set on Aβ secretion, the inhibition at 10 µM was determined as 47.9%, the inhibition at 30 µM worked out at 80.4% and the “Aβ secretion inhibiting activity (structure activity summary)” value (from here on “Aβ secretion inhibiting activity”) is “could be tolerated”. In the data set with H4βAPP695 wt cells, the “Cell protein (% decrease) 10 μM Mean” value was found to be 2% and the “Cell protein (% decrease) 30 μM Mean” value is on record as −8.7%.
In turn, `O=C(NCCSCc1ccc(Cl)cc1)c1c(Cl)cccc1Cl` [Compound 77, 2,6-Dichloro-N-[2-(4-chloro-benzylsulfanyl)-ethyl]-benzamide] returned a melting point of 104 to 106 °C. In the data set on Aβ secretion, the inhibition at 10 µM was 21.8%, the inhibition at 30 µM came to 36.5% and the “Aβ secretion inhibiting activity” value was “loss of activity”. For the same compound, in the data set with H4βAPP695 wt cells, the “Cell protein (% decrease) 10 μM Mean” value is recorded as −6.4% and the “Cell protein (% decrease) 30 μM Mean” value was 3%.
`O=C(NCCSCc1cccc(O)c1)c1c(O)cccc1O` [Compound 35, 2,6-Dihydroxy-N-[2-(3-hydroxy-benzylsulfanyl)-ethyl]-benzamide] came in with a melting point of 61 to 62 °C. For the same compound, in the data set on Aβ secretion, the inhibition at 10 µM is -22.5%, the inhibition at 30 µM was -25.2% and the “Aβ secretion inhibiting activity” value was “not well tolerated”. Besides, in the data set with H4βAPP695 wt cells, the “Cell protein (% decrease) 10 μM Mean” value is 10.5% and the “Cell protein (% decrease) 30 μM Mean” value stood at 14.3%.
In turn, `O=C(NCC[S+]([O-])Cc1cccc(Cl)c1)c1c(Cl)cccc1Cl` (centres unmarked) [Compound 71, 2,6-Dichloro-N-[2-(3-chloro-phenylmethanesulfinyl)-ethyl]-benzamide] yielded a melting point of 174 to 176 °C. Moreover, in the data set with Aβ secretion, the inhibition at 10 µM worked out at 4%, the inhibition at 30 µM is -16.5% and the “Aβ secretion inhibiting activity” value is reported as “No tested substitutions in the linker region were well tolerated”. Further, in the data set with H4βAPP695 wt cells, the “Cell protein (% decrease) 10 μM Mean” value is listed as −4.9% and the “Cell protein (% decrease) 30 μM Mean” value turned out to be 7.3%.
Consider `O=C(O)c1cccc(CSCCNC(=O)c2c(Cl)cccc2Cl)c1` [Compound 44, 3-[2-(2,6-Dichloro-benzoylamino)-ethylsulfanylmethyl]-benzoic Acid], for which the melting point was 165 to 166 °C. In the data set on Aβ secretion, the inhibition at 10 µM was -11.4%, the inhibition at 30 µM was -3.8% and the “Aβ secretion inhibiting activity” value is recorded as “did not yield good activity”. In addition, in the data set on H4βAPP695 wt cells, the “Cell protein (% decrease) 10 μM Mean” value is recorded as 7.1% and the “Cell protein (% decrease) 30 μM Mean” value is given as 3.2%.
`O=C(NCCSCc1cccc(Cl)c1)c1c(Br)cccc1Br` [Compound 54, 2,6-Dibromo-N-[2-(3-chloro-benzylsulfanyl)-ethyl]-benzamide] registered a melting point of 55 to 57 °C. In addition, in the data set on Aβ secretion, the inhibition at 30 µM amounted to 83.4% and the “Aβ secretion inhibiting activity” value is “maintained activity”. Moreover, in the data set with H4βAPP695 wt cells, the “Cell protein (% decrease) 10 μM Mean” value was found to be 6.7% and the “Cell protein (% decrease) 30 μM Mean” value was 20.8%.
The compound `O=C(NCCSCc1cccc(F)c1)c1c(F)cccc1F` [Compound 46, 2,6-Difluoro-N-[2-(3-fluoro-benzylsulfanyl)-ethyl]-benzamide] yielded a melting point of 39 to 41 °C. In the data set on Aβ secretion, the inhibition at 10 µM is -16.8% and the inhibition at 30 µM was -15.5%. Besides, in the data set on H4βAPP695 wt cells, the “Cell protein (% decrease) 10 μM Mean” value was found to be 0.1% and the “Cell protein (% decrease) 30 μM Mean” value turned out to be 1.8%.
On to `O=C(NCCSCc1cccc(O)c1)c1c(Cl)cccc1Cl` [Compound 29, 2,6-dichloro-N-[2-(3-hydroxy-benzylsulfanyl)-ethyl]-benzamide], for which, in the data set on Aβ secretion, the inhibition at 10 µM is greater than 50%, the inhibition at 30 µM turned out to be 67.7% and the “Aβ secretion inhibiting activity” value is listed as “good activity”. Further, in data set [1] (10 μM on H4 cells, without preincubation with hepatoma cells, read-out: hepatoma incubation No total Aβ (% decrease)), the inhibition at 10 µM is 56.4%. For the same compound, the inhibition at 10 µM in data set [1] (20 μM preincubated 24 h with THLE-3 hepatoma cells, diluted to 10 μM on H4 cells, read-out: hepatoma incubation Yes total Aβ (% decrease)) worked out at 23.1%. The “% remaining Activity” value in data set [1] (after 24 h incubation with hepatoma cells) came out at 41%. Moreover, in the data set on H4βAPP695 wt cells, the “Cell protein (% decrease) 10 μM Mean” value is listed as 6.3% and the “Cell protein (% decrease) 30 μM Mean” value was found to be 6.6%.
On to `O=C(NCCSCc1cccc(NC(=O)C2CC2)c1)c1c(Cl)cccc1Cl` [Compound 69, 2,6-Dichloro-N-(2-[3-(cyclopropanecarbonyl-amino)-benzylsulfanyl]-ethyl)-benzamide], for which the melting point is 46 to 47 °C. In the data set with Aβ secretion, the inhibition at 10 µM was -21.4%, the inhibition at 30 µM is -2% and the “Aβ secretion inhibiting activity” value is given as “did not yield good activity”. Besides, in the data set with H4βAPP695 wt cells, the “Cell protein (% decrease) 10 μM Mean” value amounted to 3% and the “Cell protein (% decrease) 30 μM Mean” value was determined as 3.2%.
In the case of `O=C(NCCSCc1cccc(Br)c1)c1c(Cl)cccc1Cl` [Compound 51, N-[2-(3-Bromo-benzylsulfanyl)-ethyl]-2,6-dichloro-benzamide], the melting point lay within 74 to 76 °C. Further, in the data set on Aβ secretion, the inhibition at 30 µM worked out at 90.1% and the “Aβ secretion inhibiting activity” value was “good activity”. In the data set with H4βAPP695 wt cells, the “Cell protein (% decrease) 10 μM Mean” value was 12.3% and the “Cell protein (% decrease) 30 μM Mean” value was found to be 38.6%.
The compound `Nc1cccc(CSCCNC(=O)c2c(Cl)cccc2Cl)c1` [Compound 41, N-[2-(3-Amino-benzylsulfanyl)-ethyl]-2,6-dichloro-benzamide] yielded a melting point of 55 to 56 °C. In addition, in the data set on Aβ secretion, the inhibition at 10 µM was 0.1%, the inhibition at 30 µM amounted to 17% and the “Aβ secretion inhibiting activity” value is reported as “did not yield good activity”. In addition, in the data set on H4βAPP695 wt cells, the “Cell protein (% decrease) 10 μM Mean” value came out at 15.3% and the “Cell protein (% decrease) 30 μM Mean” value amounted to 13.1%.
On to `COc1cccc(OC)c1C(=O)NCCSCc1cccc(Cl)c1` [Compound 36, N-[2-(3-Chloro-benzylsulfanyl)-ethyl]-2,6-dimethoxy-benzamide], for which the melting point lay in the range of 90 to 91 °C. For the same compound, in the data set on Aβ secretion, the inhibition at 10 µM was -13.1%, the inhibition at 30 µM was found to be 11.2% and the “Aβ secretion inhibiting activity” value is “not well tolerated”. For the same compound, in the data set with H4βAPP695 wt cells, the “Cell protein (% decrease) 10 μM Mean” value is given as 7.1% and the “Cell protein (% decrease) 30 μM Mean” value is −0.6%.
For `O=C(NCC[S+]([O-])Cc1cccc(O)c1)c1c(Cl)cccc1Cl` (centres unmarked) [Compound 33, 2,6-Dichloro-N-[2-(3-hydroxy-phenylmethanesulfinyl)-ethyl]-benzamide], the melting point was 165 to 166 °C. In the data set on Aβ secretion, the inhibition at 10 µM was -23.7%, the inhibition at 30 µM is 15.9% and the “Aβ secretion inhibiting activity” value is recorded as “No tested substitutions in the linker region were well tolerated”. In addition, in the data set with H4βAPP695 wt cells, the “Cell protein (% decrease) 10 μM Mean” value is 2.8% and the “Cell protein (% decrease) 30 μM Mean” value amounted to 4.4%.
Compound `O=C(NCCSCc1cc(O)cc(O)c1)c1c(Cl)cccc1Cl` [Compound 59, 2,6-Dichloro-N-[2-(3,5-dihydroxy-benzylsulfanyl)-ethyl]-benzamide] yielded a melting point of 55 to 57 °C. Besides, in the data set on Aβ secretion, the inhibition at 10 µM was determined as 3.1%, the inhibition at 30 µM was determined as 17.2% and the “Aβ secretion inhibiting activity” value was “lost activity”. Further, in the data set with H4βAPP695 wt cells, the “Cell protein (% decrease) 10 μM Mean” value is given as −0.4% and the “Cell protein (% decrease) 30 μM Mean” value is listed as −0.7%.
`NC(=O)c1cccc(CSCCNC(=O)c2c(Cl)cccc2Cl)c1` [Compound 45, N-[2-(3-Carbamoyl-benzylsulfanyl)-ethyl]-2,6-dichloro-benzamide] registered a melting point of 148 to 150 °C. Further, in the data set with Aβ secretion, the inhibition at 10 µM is 6.2%, the inhibition at 30 µM came to 32.3% and the “Aβ secretion inhibiting activity” value was “did not yield good activity”. Besides, in the data set with H4βAPP695 wt cells, the “Cell protein (% decrease) 10 μM Mean” value is −2.8% and the “Cell protein (% decrease) 30 μM Mean” value was −8.6%.
